In patent US6719969B1, “Treatment of liver disease and injury with CXC chemokines” (The Regents of The University of Michigan, priority 1999, dated 2004):
Several values for one entry are separate records, joined by “and”; a condition that tells them apart may be missing. Equal values may be shown once. Read-outs that look alike come from different tables or passages of the source.

Experiments:
[1] = test system: CD1 mice challenged with 400 mg/kg acetaminophen; assay: Acetaminophen-induced hepatic injury, mice fasted 12 h, treatment immediately or 10 h after challenge; format: in vivo, mouse; details: for Liver injury (histology): treatment 10 h after acetaminophen, liver at 48 h; for Significant reduction of serum AST levels / Reduction of serum AST levels: AST at 48 h; for Reduction of serum AST levels: NAC 100 ug, proteins 2 ug i.v.
Protocol: Female CD1 mice (6-8 wk of age) were purchased from Charles River Laboratories (Portage, Mich.) and maintained under specific pathogen-free conditions with free access to water and food prior to each study. Fresh suspensions of acetaminophen (Sigma Chemical Company, St. Louis, Mo.) were made daily by dissolving the compound in phosphate buffered saline (PBS) warmed to 40° C. In all studies, mice were allowed free access to water alone prior to an i.p. injection of 400 mg/kg acetaminophen (Manatou et al., 1996; incorporated herein by reference).
Protocol 2: In the second set of studies, mice were fasted for 12 h and received one of NAC, murine MIP-2, the human proteins ENA-78, IL-8, HGF or IP-10 either immediately or 10 h after acetaminophen challenge. […] Mice were injected i.v. with 100 μg of NAC or 2 μg of recombinant protein (ENA-78, IL-8, HGF or IP-10) dissolved in 0.5 ml of normal saline. All mice were subsequently sacrificed 48 h after acetaminophen challenge and serum and liver samples were removed.
Acute hepatocellular injury results in elevated levels of aspartate aminotransferase (AST). Serum levels of AST were determined 48 h after mice were challenged with acetaminophen by Clinical Pathology at the University of Michigan Medical School (Ann Arbor, Mich.) using standardized techniques.
For histological assessment of hepatic injury, liver tissues were fixed in 4% paraformaldehyde for 24 h prior to routine histological processing. A pathologist assessed hematoxylin and eosin stained slides from acetaminophen-challenged mice in a blinded manner. Separate scoring systems were devised to indicate the area of liver necrosis and hemorrhage, and the extent of hepatic inflammation. Detailed histological grading of hepatic injury including area of liver necrosis and hemorrhage was determined at 48 h after acetaminophen challenge. Hepatic inflammation was graded as absent, slight, moderate, or prominent.
The histological appearances of the livers from normal mice and mice that were challenged with acetaminophen and received saline or 2 μg of murine MIP-2, human ENA-78, human IL-8, human IP-10, human HGF or 100 μg of NAC were also analyzed. Mice were fasted for 12 h prior to i.p. injection with 400 mg/kg of acetaminophen, and then allowed free access to food. In these studies, saline, chemokines or NAC were given by i.v. injection 10 h after acetaminophen challenge, and liver was removed from each mouse for histological examination at the 48 h time point after acetaminophen.

[2] = test system: normal murine liver cells (ATCC CRL-1638; NmuLi); assay: Cultured liver cell proliferation after acetaminophen, [3H]thymidine incorporation; format: cell-based, mouse; details: for Proliferation of liver cells exposed to acetaminophen for 24 h: 2.5 mg/ml acetaminophen; for Proliferation of liver cells exposed to PBS: NAC 1 mM, cytokines 1 ng/ml, no acetaminophen
Protocol: The effects of chemokines, NAC and HGF on hepatocyte proliferation after a 24 h acetaminophen challenge were examined using normal murine liver cells obtained from American Type Culture Collection (ATCC CRL-1638; NmuLi). Hepatocytes were plated at a density of 1.0×10^5 cells/well in 6-well tissue culture plates, and were deprived of fetal bovine serum supplementation for 36 h prior to an study. Fasted hepatocytes were subsequently exposed to 2.5 mg/ml of acetaminophen and were left untreated or treated with one of NAC, MIP-2, ENA-78, IL-8, IP-10 or HGF. NAC at 1 mM or individual cytokines at 1 ng/ml were added either immediately or 10 h after the addition of acetaminophen.
In additional in vitro studies, normal serum or anti-CXCR2 antibody was also included in cultures of treated or untreated hepatocytes exposed to PBS or acetaminophen. Ten μCi of [^3H]thymidine was added to each well for the final 4 h of culture, and 24 h after the addition of acetaminophen suspensions of hepatocytes were prepared via cell lysis with 0.5% (v/v) Triton-X100. [^3H]thymidine incorporation was assessed by liquid scintillation counting on a Beckman counter (Beckman Instruments, Fullerton, Calif.).

[3] = test system: CD1 mice challenged with 400 mg/kg acetaminophen; assay: Acetaminophen challenge in mice fasted 24 h, MIP-2 or NAC treatment; format: in vivo, mouse
Protocol: Protocol 3: In the next set of studies, mice were fasted for 24 h and received MIP-2 (2 μg) or NAC (100 μg) via an i.v. injection either immediately or 10 h after acetaminophen challenge, and liver and serum samples were removed from surviving mice 48 h after acetaminophen challenge. Liver and serum samples from the experimental groups and from mice challenged with an i.p. injection of PBS and treated i.v. with normal saline were processed as described below.
The histological appearances of the livers from mice that were challenged with acetaminophen and received 100 μg of NAC or 2 μg of murine MIP-2 by i.v. injection, either immediately after or 10 h later, were also analyzed.

primary rat hepatocytes [4] = test system: primary rat hepatocytes
Protocol: (§1) Adult male pathogen-free Sprague Dawley rats (Charles River, Portage, Mich.) weighing 300-350 gms. were used for isolation of hepatocytes by collagenase perfusion (Berry and Friend, 1969; Alpini et al., 1994; each incorporated herein by reference). Perfusion was performed via the portal vein after anesthesia was induced with intramuscular ketamine (100 mg/kg) and maintained with inhalation of methoxyflurane. […] The portal vein was then exposed and cannulated with a 16 gauge angiocatheter.
(§2) The liver was perfused with Hank's solution (calcium and magnesium free with 10 mM Hepes and 10^5 U/L of penicillin/streptomycin, pH 7.4 [Biowhittaker, Walkersville, Md.]) at 37° C. at a rate of 10 ml/min to flush the liver of intravascular blood. The liver was next perfused with a collagenase solution (0.5 mg/ml collagenase B [Boehringer Mannheim, Indianapolis, Ind.] in Dulbecco's Modified Eagle's Media/F12 [DMEM/F12 {Biowhittaker, Walkersville, Md.}] with 10^5 U/L penicillin/streptomycin) at 37° C. at a rate of 10 ml/min until there was evidence of tissue fracture beneath the liver capsule.
(§3) The liver was then gently removed from the animal, placed into a sterile petri dish containing additional collagenase solution, the liver capsule removed, and the tissue gently agitated to disperse the cells. […] Hepatocyte viability was generally 85-95% as determined by trypan blue exclusion. […]

[5] = test system: CD-1 mice challenged with 400 mg/kg acetaminophen
neutrophils = details: ELR motif introduced into PF-4; cited from earlier work
murine CXCR2 = target: T1, murine CXCR2 (Mus musculus, UniProt P35343); details: Lee et al., 1995; cited from earlier work
T1 sequence (P35343 1-359): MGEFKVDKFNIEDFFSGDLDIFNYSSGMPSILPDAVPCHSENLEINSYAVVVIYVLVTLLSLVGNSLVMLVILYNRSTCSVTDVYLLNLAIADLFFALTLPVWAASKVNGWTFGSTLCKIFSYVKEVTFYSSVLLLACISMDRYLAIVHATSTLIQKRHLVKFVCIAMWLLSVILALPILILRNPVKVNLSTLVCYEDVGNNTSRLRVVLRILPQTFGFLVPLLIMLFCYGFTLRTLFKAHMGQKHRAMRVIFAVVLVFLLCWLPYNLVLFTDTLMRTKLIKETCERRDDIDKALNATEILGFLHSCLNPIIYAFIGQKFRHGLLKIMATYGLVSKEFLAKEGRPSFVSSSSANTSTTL

primary rat hepatocytes [6] = assay: Primary rat hepatocyte proliferation in vitro, 3H-thymidine incorporation; details: 0.001-100 ng/ml, 24 h of incubation, vs media alone
Protocol: as §1, §2, §3

[7] = test system: CD-1 mice challenged with 400 mg/kg acetaminophen; assay: Delayed MIP-2 therapy in acetaminophen-challenged mice: histology, BrdU, nuclear Western blot; format: in vivo, mouse
[8] = treatment delayed 10 h after acetaminophen
[9] = treatment immediately after acetaminophen
[10] = 24 h fast, treatment delayed 10 h
[11] = CD1 mice fasted 24 h, 400 mg/kg acetaminophen, 400 mg/kg

With CC(=O)N[C@@H](CS)C(=O)O [NAC, N-acetyl-cysteine] the “Liver injury (histology)” value [1] was “Neither HGF nor 100 μg of NAC were effective”, the “Significant reduction of serum AST levels” value (“Significant reduction” below) [1, 8] was “no longer able to significantly reduced serum AST levels” and the “Reduction of serum AST levels” value [1, 9] was “approximately 90%”. The “Proliferation of liver cells exposed to acetaminophen for 24 h” value (from here on “Proliferation … for 24 h”) ([2]; treatment added 10 h later, vs PBS cultures) was “significantly reduced liver cell proliferation”, the “Proliferation … for 24 h” value ([2]; treatment added immediately) was “maintained the proliferation” and the “Proliferation of liver cells exposed to PBS” value [2] was “did not alter the proliferation”. The Liver histology [3, 10] was “did not attenuate hepatic injury”, the Liver histology ([3]; 24 h fast, treatment immediately after acetaminophen) was “effective” and the “Serum AST, NAC vs MIP-2” value ([3]; 24 h fast, treatment immediately after acetaminophen, 48 h) was “significantly lower levels of serum AST”. For the same molecule, the “Percent survival, treatment Immediately After Acetaminophen” value ([3]; CD1 mice fasted 24 h, 400 mg/kg acetaminophen, monitored 48 h, 400 mg/kg) was 90% and the “Percent survival, treatment 10 h post Acetaminophen” value [3, 11] was 25% and 20%.

For “ENA-78: ELR-containing CXC chemokine, epithelial neutrophil activating protein-78; human recombinant protein”, the “Liver injury (histology)” value [1] was “marked attenuation of liver injury”, the “Significant reduction” value [1, 8] was “significantly reduced serum AST levels” and the “Reduction of serum AST levels” value [1, 9] was “approximately 50%”. For the same molecule, the “Proliferation … for 24 h” value ([2]; treatment added immediately) was “prevented the drop in liver cell proliferation” and the “Proliferation of liver cells exposed to PBS” value [2] was “did not change the proliferation”.

In the case of “HGF: human hepatocyte growth factor, used as positive control [reference compound]”, the “Hepatocyte proliferation (incorporation of 3H-thymidine)” value (primary rat hepatocytes [4]) is reported as “more significant”, the “Liver injury (histology)” value [1] is reported as “Neither HGF nor 100 μg of NAC were effective” and the “Significant reduction” value [1, 9] is reported as “not”. For the same molecule, the “Proliferation of liver cells exposed to PBS” value [2] was “did not change the proliferation”.

With “IL-8: ELR-containing CXC chemokine, interleukin-8; human recombinant protein” the “Liver injury (histology)” value [1] was “marked attenuation of liver injury”, the “Significant reduction” value [1, 8] was “significantly reduced serum AST levels” and the “Reduction of serum AST levels” value [1, 9] was “approximately 50%”. The “Proliferation of liver cells exposed to PBS” value [2] was “did not change the proliferation”.

With “IP-10: non-ELR CXC chemokine, γ-interferon-inducible protein-10” the “Significant reduction” value [1, 9] was “not”, the “Hepatic injury (histology)” value ([5]; 1 ug i.v. 10 h after acetaminophen, 2 days after challenge) was “dramatically decreased hepatic injury” and the “Decrease in liver injury (serum ALT)” value ([5]; 8 hours after administration, vs saline) was “approximately three-fold”. The “Serum MIP-2 levels” value ([5]; 8 h post treatment) was “almost three times the levels seen in control animals”, the “CXCR2 protein in liver (Western blot)” value ([5]; 26 h and subsequent time points) was “high level of CXCR2 protein” and the “CXCR2 protein on hepatocytes (immunohistochemistry)” value ([5]; mouse, in vivo) was “quite strong expression of CXCR2 protein”. For the same molecule, the “Lowering of proliferation rate of liver cells exposed to PBS” value ([2]; 1 ng/ml, vs control cultures with PBS) was 40% and the “Proliferation … for 24 h” value ([2]; treatment added immediately) was “not further reduced”.

B1: PF-4: CXC chemokine lacking the ELR sequence (protein, UniProt P02776 32-101, looked up)
Platelet factor 4: EAEEDGDLQCLCVKTTSQVRPRHITSLEVIKAGPHCPTAQLIATLKNGRKICLDLQAPLYKKIIKKLLES
For B1, the “Increase in neutrophil chemotactic properties” value (neutrophils) is listed as 1,000 fold.

B2: MIP-2: ELR-containing CXC chemokine, macrophage inflammatory protein-2; recombinant murine protein (protein, UniProt P10889 28-100, looked up)
C-X-C motif chemokine 2: AVVASELRCQCLKTLPRVDFKNIQSLSVTPPGPHCAQTEVIATLKGGQKVCLDPEAPLVQKIIQKILNKGKAN
For B2, the “Affinity for murine CXCR2 relative to KC” value (murine CXCR2) is given as “ten-fold greater affinity”, the “Liver injury (histology)” value [1] is given as “marked attenuation of liver injury” and the “Significant reduction” value [1, 8] is given as “significantly reduced serum AST levels”. For the same molecule, the “Reduction of serum AST levels” value [1, 9] was “approximately 50%”, the “Hepatocyte proliferation (incorporation of 3H-thymidine)” value (primary rat hepatocytes [6]) was “significant increase in hepatocyte proliferation” and the “Liver histology 2 days after injection” value ([7]; 1 ug i.v. 10 h after acetaminophen) was “little evidence of liver injury”. For the same molecule, the “Nuclear expression of C/EBP-α” value ([7]; 8 h after treatment) was “exhibited nuclear expression of the 48- and 42-kDa isoforms of C/EBP-α”, the “Nuclear cyclin D1 protein” value ([7]; 24 h after treatment, Western blot) was “markedly greater nuclear levels of cyclin D1 protein” and the “BrdU-labeled hepatocytes, enhancement above control group” value ([7]; 48 h after treatment) was 10 fold. For the same molecule, the “AST and ALT levels” value ([7]; IL-6 knockout) was “dramatic decrease of AST and ALT levels”, the “Nuclear expression of 38- and 35-kDa LAP of C/EBP-β” value ([7]; Western blot of liver nuclear extracts) was “evident at 4 h after MIP-2 treatment” and the “Nuclear expression of STAT-3” value ([7]; vs PBS) was “strongly expressed at all times examined”. For the same molecule, the “IL-6 in serum or liver” value ([7]; vs controls) was “never significantly elevated”, the “Proliferation … for 24 h” value ([2]; treatment added immediately) was “prevented the drop in liver cell proliferation” and the “Proliferation of liver cells exposed to PBS” value [2] was “did not change the proliferation”. For the same molecule, the Liver histology [3, 10] was “showed improvements”, the “Serum AST, MIP-2 vs NAC” value ([3]; 24 h fast, treatment delayed 10 h, 48 h) was “significantly lower levels of serum AST” and the “Percent survival, treatment 10 h post Acetaminophen” value [3, 11] was 60%.

B3: KC: murine ELR-CXC chemokine with neutrophil chemotactic properties (protein, UniProt P12850 25-96, looked up)
Growth-regulated alpha protein: APIANELRCQCLQTMAGIHLKNIQSLKVLPSGPHCTQTEVIATLKNGREACLDPEAPLVQKIVQKMLKGVPK
In the case of B3, the “Affinity for CXCR2, fold less than MIP-2” value (murine CXCR2) is listed as “approximately 10 fold”.
